Data taken from patent publication US20230059136A1, “THE COMPOUNDS AND COMPOSITIONS FOR TREATING CONDITIONS ASSOCIATED WITH NLRP ACTIVITY” (Novartis AG, priority 2018, published 2023).

The molecules below were run on IL-1β production in PMA-differentiated THP-1 cells (assay: IL-1β production in PMA-differentiated THP-1 cells stimulated with gramicidin (hTHP-1 assay containing 2% fetal bovine serum)). Conditions: Homo sapiens, THP-1, Table B1; 2% fetal bovine serum; cells printed as numeric bound; read-out: hTHP-1 IC50 (Average IC50 of compounds in hTHP-1 assay).
Assay type: cell-based, human
Method in brief: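 THP-1 cells were differentiated with PMA 20 ng/ml for 16-18 h, then plated at 50,000 cells/well in RPMI with 2% FBS. They were preincubated 1 h with compound (100–0.0017 μM final, 0.37% DMSO), then stimulated with gramicidin 5 μM for 2 h. Supernatant IL-1β was measured by HTRF.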
In the case of CC(C)c1cc(F)cc(C(C)C)c1C(C)C(=O)N=S(N)(=O)c1cnc(C(C)(C)O)s1 (racemic) [Example 193, (S, S) and (S, R)-N-(amino (2-(2-hydroxypropan-2-yl)thiazol-5-yl)(oxo)-λ^6-sulfaneylidene)-2-(4-fluoro-2,6-diisopropylphenyl) propanamide], the IC50 is reported as > 30000 nM. CC(C)(O)c1ncc(S(N)(=O)=NC(=O)Cc2c3c(cc4c2CC4)CCC3)s1 [Example 224, (S)- and (R)—N-(amino(2-(2-hydroxypropan-2-yl)thiazol-5-yl)(oxo)-λ^6-sulfaneylidene)-2-(2,4,5,6-tetrahydro-1H-cyclobuta[f]inden-3-yl)acetamide] was tested, and the IC50 was > 30000 nM. With CC(C)c1cc(CCC2CCOCC2)cc(C(C)C)c1CC(=O)N=[S@](N)(=O)c1cc(C(C)(C)O)n(-c2ccccc2)n1 (single isomer, unassigned) [Example 235, (S) or (R)-N-(amino(5-(2-hydroxypropan-2-yl)-1-phenyl-1H-pyrazol-3-yl)(oxo)-λ^6-2-(2,6-diisopropyl-4-(2-(tetrahydro-2H-pyran-4-yl)ethyl)phenyl)acetamide] the IC50 was > 30000 nM. In the case of CC(C)c1cc(C(=O)CC2CCCCC2)cc(C(C)C)c1CC(=O)N=S(N)(=O)c1cc(C(C)(C)O)n(-c2ccccc2)n1 (single isomer, unassigned) [Example 286, (S) or (R)-N-(amino (5-(2-hydroxypropan-2-yl)-1-phenyl-1H-pyrazol-3-yl)(oxo)-λ^6-sulfaneylidene)-2-(4-(2-cyclohexylacetyl)-2,6-diisopropylphenyl) acetamide], the IC50 is reported as > 30000 nM.

Same assay, conditions: Homo sapiens, THP-1, Table B1; 2% fetal bovine serum; class symbols; read-out: hTHP-1 IC50 (Average IC50 of compounds in hTHP-1 assay)
CC(C)c1nc(C(F)(F)F)nc(C(C)C)c1CC(=O)N=S(N)(=O)c1cnc(C(C)(C)O)s1 (stereo not shown) [Example 153, N-(amino(2-(2-hydroxypropan-2-yl)thiazol-5-yl)(oxo)-λ^6-sulfaneylidene)-2-(4,6-diisopropyl-2-(trifluoromethyl)pyrimidin-5-yl)acetamide] showed an IC50 of 1000 to 5000 nM. Work on CC(C)c1cc2c(c(C(C)C)c1CC(=O)N=S(N)(=O)c1sc(CN(C)C)cc1F)COC2 (single isomer, unassigned) [Example 307, (R) or (S)-N-(amino(5-((dimethylamino)methyl)-3-fluorothiophen-2-yl)(oxo)-λ^6-sulfaneylidene)-2-(4,6-diisopropyl-1,3-dihydroisobenzofuran-5-yl)acetamide] yielded an IC50 of 200 to 1000 nM. With NS(=O)(=NC(=O)Cc1c2c(cc3c1CCC3)CCC2)c1cnn2c1OCCC2 (single isomer, unassigned) [Example 270, (S) or (R)-N-(amino(6,7-dihydro-5H-pyrazolo[5,1-b][1,3]oxazin-3-yl)(oxo)-λ^6-sulfaneylidene)-2-(1,2,3,5,6,7-hexahydro-s-indacen-4-yl)acetamide] the IC50 was 5000 to 30000 nM. CC(C)c1cc(COC2CCCC2)cc(C(C)C)c1CC(=O)N=S(N)(=O)c1cc(C(C)(C)O)n(-c2ccc(F)cc2)n1 (stereo not shown) [Example 241, N-(amino(1-(4-fluorophenyl)-5-(2-hydroxypropan-2-yl)-1H-pyrazol-3-yl)(oxo)-λ^6-sulfaneylidene)-2-(4-((cyclopentyloxy)methyl)-2,6-diisopropylphenyl)acetamide] was tested, and the IC50 was 5000 to 30000 nM. Work on CCc1cc2c(c(C(C)C)c1CC(=O)N=S(N)(=O)c1cnc(C(C)(C)O)s1)COC2 (single isomer, unassigned) [Example 291, (R) or (S)-N-(amino(2-(2-hydroxypropan-2-yl)thiazol-5-yl)(oxo)-λ^6-sulfaneylidene)-2-(6-ethyl-4-isopropyl-1,3-dihydroisobenzofuran-5-yl)acetamide] yielded an IC50 of 5000 to 30000 nM. Cc1ccc(-c2cc(C(C)C)c(CC(=O)N=S(N)(=O)c3ncc(C(C)(C)O)s3)c(C(C)C)c2)cc1C (stereo not shown) [Example 121, N-(amino(5-(2-hydroxypropan-2-yl)thiazol-2-yl)(oxo)-λ^6-sulfaneylidene)-2-(3,5-diisopropyl-3′,4′-dimethyl-[1,1′-biphenyl]-4-yl)acetamide] was tested, and the IC50 was 200 to 1000 nM. For CC(C)c1cc2c(c(C(C)C)c1CC(=O)N=S(N)(=O)c1sc(C(C)(C)O)cc1F)COC2 (stereo not shown) [Example 246, N-(amino(3-fluoro-5-(2-hydroxypropan-2-yl)thiophen-2-yl)(oxo)-λ^6-sulfaneylidene)-2-(4,6-diisopropyl-1,3-dihydroisobenzofuran-5-yl) acetamide], the IC50 was 40 to 200 nM.

Same assay, conditions: Homo sapiens, THP-1, Table B2; 2% fetal bovine serum; cells printed as numeric bound; read-out: hTHP-1 IC50 (Average IC50 of compounds in hTHP-1 assay)
In the case of CC(C)c1cc(C#N)c(F)c(C(C)C)c1CC(=O)N=[S@@](=O)(NC#N)c1cnc([C@](C)(O)CO)s1 [Example 370, N-((R)-cyanamido(2-((R)-1,2-dihydroxypropan-2-yl)thiazol-5-yl)(oxo)-λ^6-sulfaneylidene)-2-(4-cyano-3-fluoro-2,6-diisopropylphenyl)acetamide], the IC50 is reported as > 30000 nM. In the case of CC(C)c1ncnc(C(C)C)c1CC(=O)N=S(N)(=O)c1cnc(C(C)(C)O)s1 (stereo not shown) [Example 392, N-(amino(2-(2-hydroxypropan-2-yl)thiazol-5-yl)(oxo)-λ^6-sulfaneylidene)-2-(4,6-diisopropylpyrimidin-5-yl)acetamide], the IC50 is reported as > 30000 nM.

Same assay, conditions: Homo sapiens, THP-1, Table B2; 2% fetal bovine serum; class symbols; read-out: hTHP-1 IC50 (Average IC50 of compounds in hTHP-1 assay)
CC(C)c1cc(C#N)c(F)c(C(C)C)c1CC(=O)N=S(N)(=O)c1cnc(C(O)CO)s1 (stereo not shown) [compound 382] gave an IC50 of 1000 to 5000 nM. CCn1cc(F)c(S(N)(=O)=NC(=O)Cc2c(C(C)C)cc3c(c2C(C)C)COC3)n1 (stereo not shown) [Example 393, N-(amino(1-ethyl-4-fluoro-1H-pyrazol-3-yl)(oxo)-λ^6-sulfaneylidene)-2-(4,6-diisopropyl-1,3-dihydroisobenzofuran-5-yl)acetamide] showed an IC50 of 1000 to 5000 nM.

Same assay, conditions: Table B1; 2% fetal bovine serum; class symbols; read-out: hTHP-1 IC50 (Average IC50 of compounds in hTHP-1 assay)
CC(C)c1cc(C(F)F)cc(C(C)C)c1CC(=O)N=S(N)(=O)c1ccc(CN(C)C)cc1 (single isomer, unassigned) [Example 326, (S) or (R)-N-(amino(4-((dimethylamino)methyl)phenyl)(oxo)-λ^6-sulfaneylidene)-2-(4-(difluoromethyl)-2,6-diisopropylphenyl) acetamide] showed an IC50 of 5000 to 30000 nM. For CC(C)c1ncc(F)c(C(C)C)c1CC(=O)N=S(N)(=O)c1cc(C(C)(C)O)cs1 (single isomer, unassigned) [Example 208, N-(amino(4-(2-hydroxypropan-2-yl)thiophen-2-yl)(oxo)-λ^6-sulfaneylidene)-2-(5-fluoro-2,4-diisopropylpyridin-3-yl)acetamide], the IC50 was 40 to 200 nM. For Cc1nc(C(C)(C)O)sc1S(N)(=O)=NC(=O)Cc1c(C(C)C)cc(C#N)cc1C(C)C (single isomer, unassigned) [Example 61, (R)- or (S)-2-(4-cyano-2,6-diisopropylphenyl)-N-(2-(2-hydroxypropan-2-yl)-4-methylthiazole-5-sulfonimidoyl)acetamide], the IC50 was 5000 to 30000 nM. For COCc1cc(C(C)C)c(CC(=O)N=S(N)(=O)c2sc(C(C)(C)O)nc2CO)c(C(C)C)c1 (stereo not shown) [Example 24, 2-(2,6-diisopropyl-4-(methoxymethyl)phenyl)-N-(4-(hydroxymethyl)-2-(2-hydroxypropan-2-yl)thiazole-5-sulfonimidoyl)acetamide], the IC50 was 200 to 1000 nM. With COCc1cc(C(C)C)c(CC(=O)N=S(N)(=O)c2cc(C(C)(C)O)cs2)c(C(C)C)c1 (single isomer, unassigned) [Example 158, (S) or (R)-N-(amino(4-(2-hydroxypropan-2-yl)thiophen-2-yl)(oxo)-λ^6-sulfaneylidene)-2-(2,6-diisopropyl-4-(methoxymethyl)phenyl)acetamide] the IC50 was 1000 to 5000 nM. For CC(C)c1ccc(F)c(C(C)C)c1CC(=O)N=S(N)(=O)c1cc(C(C)(C)O)cs1 (single isomer, unassigned) [Example 159, (R) or (S)-N-(amino(4-(2-hydroxypropan-2-yl)thiophen-2-yl)(oxo)-λ^6-sulfaneylidene)-2-(3-fluoro-2,6-diisopropylphenyl) acetamide], the IC50 was 40 to 200 nM. CC(C)c1ccc(F)c(C(C)C)c1CC(=O)N=S(N)(=O)c1nc(C(C)(C)O)cs1 (single isomer, unassigned) [Example 182, (S) or (R)-N-(amino(4-(2-hydroxypropan-2-yl)thiazol-2-yl)(oxo)-λ^6-sulfaneylidene)-2-(3-fluoro-2,6-diisopropylphenyl) acetamide] was tested, and the IC50 was 5000 to 30000 nM. Molecule CC(C)c1cc(C(F)F)cc(C(C)C)c1CC(=O)N=S(N)(=O)c1sc(C(C)(C)O)cc1F (single isomer, unassigned) [Example 81, (R)- or (S)-2-(4-(difluoromethyl)-2,6-diisopropylphenyl)-N-(3-fluoro-5-(2-hydroxypropan-2-yl)thiophen-2-ylsulfonimidoyl)acetamide] has an IC50 of 200 to 1000 nM.

Same assay, conditions: Table B2; 2% fetal bovine serum; class symbols; read-out: hTHP-1 IC50 (Average IC50 of compounds in hTHP-1 assay)
With CC(C)c1cc(C#N)cc(C(C)C)c1CC(=O)N=S(N)(=O)c1nc(CO)c(C(C)(C)O)s1 (single isomer, unassigned) [Example 385, (R) or (S)-N-(amino(4-(hydroxymethyl)-5-(2-hydroxypropan-2-yl)thiazol-2-yl)(oxo)-λ^6-sulfaneylidene)-2-(4-cyano-2,6-diisopropylphenyl)acetamide] the IC50 was 200 to 1000 nM. CCn1cc(F)c(S(N)(=O)=NC(=O)Cc2c(C(C)C)cc3c(c2C(C)C)OC(F)(F)O3)n1 (single isomer, unassigned) [Example 400, (R) or (S)-N-(amino(1-ethyl-4-fluoro-1H-pyrazol-3-yl)(oxo)-λ^6-sulfaneylidene)-2-(2,2-difluoro-4,6-diisopropylbenzo[d][1,3]dioxol-5-yl)acetamide] was tested, and the IC50 was 200 to 1000 nM.
